Patent US20090258836A1, “EFFECTIVE DELIVERY OF CROSS-SPECIES A3 ADENOSINE-RECEPTOR ANTAGONISTS TO REDUCE INTRAOCULAR PRESSURE” (The Trustees of The University of Pennsylvania, priority 2006, published 2009)

Columns and labels:
human A2A receptors = human A2A receptors (Homo sapiens, UniProt P29274); conditions: literature; read-out: Ki for the binding to human A2A receptors; cited from earlier work
mouse IOP = experiment: Mouse IOP after topical application, invasive servo-null micropipette system (SNMS); assay type: in vivo, Black Swiss mice; conditions: after topical application
How it was run: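 Black Swiss outbred mice, 7-9 weeks, under i.p. ketamine plus topical proparacaine. Drugs applied topically as droplets with <2% DMSO (none for hydrophilic compounds) and 0.0005% benzalkonium chloride, 295-300 mOsm. IOP measured invasively by servo-null micropipette 10 min after a single application.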

[1] = target: T1, recombinant human A2B receptors (Homo sapiens, UniProt P29275); experiment: Radioligand binding to recombinant human A2B receptors; conditions: 10 μM
T1 sequence (P29275 1-332): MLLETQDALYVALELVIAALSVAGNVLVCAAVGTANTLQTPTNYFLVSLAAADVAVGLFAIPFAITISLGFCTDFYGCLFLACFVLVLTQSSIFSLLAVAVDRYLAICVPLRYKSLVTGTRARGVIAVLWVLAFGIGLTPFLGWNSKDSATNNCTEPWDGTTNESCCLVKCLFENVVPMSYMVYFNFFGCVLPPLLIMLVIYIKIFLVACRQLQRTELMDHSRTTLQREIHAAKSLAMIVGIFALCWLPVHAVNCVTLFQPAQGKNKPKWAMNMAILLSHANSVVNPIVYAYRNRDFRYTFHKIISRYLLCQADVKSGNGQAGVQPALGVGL

cultured human NPE cells = conditions: 10 μM adenosine; cited from earlier work

Chain of human A2A receptors (P29274 whole entry): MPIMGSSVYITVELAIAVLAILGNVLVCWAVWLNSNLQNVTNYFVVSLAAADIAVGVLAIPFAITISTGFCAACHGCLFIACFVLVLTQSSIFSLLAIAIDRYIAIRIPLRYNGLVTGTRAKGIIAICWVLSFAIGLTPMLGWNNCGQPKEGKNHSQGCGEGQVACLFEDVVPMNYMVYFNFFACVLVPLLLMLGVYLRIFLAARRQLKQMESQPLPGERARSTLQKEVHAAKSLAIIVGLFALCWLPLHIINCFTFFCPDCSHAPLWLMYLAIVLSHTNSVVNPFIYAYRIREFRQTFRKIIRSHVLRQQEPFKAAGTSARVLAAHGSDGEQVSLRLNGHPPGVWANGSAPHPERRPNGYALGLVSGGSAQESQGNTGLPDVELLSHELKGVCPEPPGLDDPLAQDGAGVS

For CCOC(=O)C1=C(C)NC(c2ccccc2)=C(C(=O)OCc2ccccc2)C1C#Cc1ccccc1 (racemic) [MRS-1191, 3-ethyl 5-benzyl-2-methyl-6-phenyl-4-phenylethynyl-1,4-(±)-dihydropyridine-3,5-dicarboxylate], the Ki (human A2A receptors) is listed as over 100 µM, the “time to begin to lower IOP, invasive servo-null technique” value (mouse IOP) is listed as “within about a minute” and the “displacement of radioligand binding” value [1] is listed as “did not displace radioligand binding”. For the same molecule, the “effect of antagonist on adenosine-treated cells” value (cultured human NPE cells) was “displayed no exponential shrinkage”.
